Source: US7781436B2 (Hoffmann-La Roche Inc., priority 2005, dated 2010)

biological target: T1, human V1a receptor (Homo sapiens, UniProt P37288); test: human V1a receptor binding (3H-Vasopressin SPA, membranes of transfected HEK293 cells); conditions: not given
T1 construct: expressed in transfected cells; host or cells: HEK293 cells, transiently transfected; membranes prepared
Procedure: The human V1a receptor was cloned by RT-PCR from total human liver RNA. The coding sequence was subcloned in an expression vector after sequencing to confirm the identity of the amplified sequence. […] Cell membranes were prepared from HEK293 cells transiently transfected with the expression vector and grown in 20 liter fermenters with the following protocol.
50 g of cells are resuspended in 30 ml freshly prepared ice cold Lysis buffer (50 mM HEPES, 1 mM EDTA, 10 mM MgCl2 adjusted to pH=7.4+ complete cocktail of protease inhibitor (Roche Diagnostics)). Homogenized with Polytron for 1 min and sonicated on ice for 2×2 minutes at 80% intensity (Vibracell sonicator). The preparation is centrifuged 20 min at 500 g at 4° C., the pellet is discarded and the supernatant centrifuged 1 hour at 43,000 g at 4° C. (19'000 rpm). The pellet is resuspended in 12.5 ml Lysis buffer+12.5 ml Sucrose 20% and homogenized using a Polytron for 1-2 min. The protein concentration is determined by the Bradford method, and aliquots are stored at −80° C. until use. For binding studies 60 mg Yttrium silicate SPA beads (Amersham) are mixed with an aliquot of membrane in binding buffer (50 mM Tris, 120 mM NaCl, 5 mM KCl, 2 mM CaCl2, 10 mM MgCl2) for 15 minutes with mixing. 50 ul of bead/membrane mixture is then added to each well of a 96 well plate, followed by 50 ul of 4 nM 3H-Vasopressin (American Radiolabeled Chemicals). For total binding measurement 100 ul of binding buffer are added to the respective wells, for non-specific binding 100 ul of […] cold vasopressin and for compound testing 100 ul of a serial dilution of each compound in 2% DMSO. The plate is incubated 1 h at room temperature, centrifuged 1 min at 1000 g and counted on a Packard Top-Count. Non-specific binding counts are subtracted from each well, and data is normalized to the maximum specific binding set at 100%. To calculate an IC 50 the curve is fitted using a non-linear regression model (XLfit) and the Ki is calculated using the Cheng-Prussoff equation.

T1 sequence (P37288 whole entry): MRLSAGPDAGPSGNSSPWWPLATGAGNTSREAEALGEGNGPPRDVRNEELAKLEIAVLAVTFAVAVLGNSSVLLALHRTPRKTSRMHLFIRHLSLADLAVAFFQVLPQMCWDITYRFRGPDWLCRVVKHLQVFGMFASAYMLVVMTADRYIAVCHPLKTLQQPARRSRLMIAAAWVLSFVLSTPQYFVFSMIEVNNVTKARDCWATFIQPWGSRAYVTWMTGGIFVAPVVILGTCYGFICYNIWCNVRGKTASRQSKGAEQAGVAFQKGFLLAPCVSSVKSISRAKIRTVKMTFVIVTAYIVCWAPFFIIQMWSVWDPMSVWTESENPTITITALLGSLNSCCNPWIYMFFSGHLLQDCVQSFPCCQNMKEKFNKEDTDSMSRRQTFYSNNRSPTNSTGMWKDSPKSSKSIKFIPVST

| SMILES | Ki [nM] |
| --- | --- |
| COc1ccccc1C1=CCN(C(=O)c2c(C)n(Cc3ccccc3)c3ccccc23)CC1 [Example 3] | 14 |
| Cc1c(C(=O)N2CCC(c3ccccc3)CC2)c2ccccc2n1Cc1ccccc1 [Example 24] | 10 |
| COc1cccc(OC)c1C1CCN(C(=O)c2cn(Cc3ccccn3)c3cc(Cl)ccc23)CC1 [Example 47, (6-Chloro-1-pyridin-2-ylmethyl-1H-indol-3-yl)-[4-(2,6-dimethoxy-phenyl)-piperidin-1-yl]-methanone] | 4 |
| COc1cccc(OC)c1C1CCN(C(=O)c2cn(Cc3cnccn3)c3cc(Cl)ccc23)CC1 [Example 50] | 4 |
| COc1ccccc1C1CCN(C(=O)c2cn(Cc3cc(F)cc(F)c3)c3cc(Cl)ccc23)CC1 [Example 56, [6-Chloro-1-(3,5-difluoro-benzyl)-1H-indol-3-yl]-[4-(2-methoxy-phenyl)-piperidin-1-yl]-methanone] | 2 |
| COc1ccccc1C1(C#N)CCN(C(=O)c2cn(CC(=O)N(C)C)c3cc(Cl)ccc23)CC1 [Example 60, 2-{6-Chloro-3-[4-cyano-4-(2-methoxy-phenyl)-piperidine-1-carbonyl]-indol-1-yl}-N,N-dimethyl-acetamide] | 8 |
| CN(C)C(=O)Cn1cc(C(=O)N2CCC(C#N)(c3ccccc3F)CC2)c2ccc(Cl)cc21 [Example 61, 2-{6-Chloro-3-[4-cyano-4-(2-fluoro-phenyl)-piperidine-1-carbonyl]-indol-1-yl}-N,N-dimethyl-acetamide] | 13 |
| CN1CCN(C(=O)Cn2cc(C(=O)N3CCC(c4cccc5c4OCC5)CC3)c3ccc(Cl)cc32)CC1 [Example 71, 2-{6-Chloro-3-[4-(2,3-dihydro-benzofuran-7-yl)-piperidine-1-carbonyl]-indol-1-yl}-1-(4-methyl-piperazin-1-yl)-ethanone] | 5 |
| COc1cccc(OC)c1C1CCN(C(=O)c2cn(CC(N)=O)c3cc(Cl)ccc23)CC1 [Example 81, 2-{6-Chloro-3-[4-(2,6-dimethoxy-phenyl)-piperidine-1-carbonyl]-indol-1-yl}-acetamide] | 13 |
| CN(C)CCn1cc(C(=O)N2CCC(c3cccc4c3OCC4)CC2)c2ccc(Cl)cc21 [Example 87, [6-Chloro-1-(2-dimethylamino-ethyl)-1H-indol-3-yl]-[4-(2,3-dihydro-benzofuran-7-yl)-piperidin-1-yl]-methanone] | 4 |

same assay, conditions: displacement of 4 nM 3H-Vasopressin, HEK293 cell membranes, Ki by Cheng-Prussoff from IC50; read-out: Ki

| SMILES | Ki [nM] |
| --- | --- |
| COc1cccc(OC)c1C1CCN(C(=O)c2c[nH]c3cc(Cl)ccc23)CC1 [Example 40, (6-Chloro-1H-indol-3-yl)-[4-(2,6-dimethoxy-phenyl)-piperidin-1-yl]-methanone] | 8 |
| COc1cccc(OC)c1C1CCN(C(=O)c2cn(CC(=O)N(C)C)c3cc(Cl)ccc23)CC1 [Example 43, 2-{6-Chloro-3-[4-(2,6-dimethoxy-phenyl)-piperidine-1-carbonyl]-indol-1-yl}-N,N-dimethyl-acetamide] | 2 |
| COc1cccc(OC)c1C1CCN(C(=O)c2cn(CC(=O)c3ccccn3)c3cc(Cl)ccc23)CC1 [Example 44, 2-{6-Chloro-3-[4-(2,6-dimethoxy-phenyl)-piperidine-1-carbonyl]-indol-1-yl}-1-pyridin-2-yl-ethanone] | 3 |
| COc1cccc(OC)c1C1CCN(C(=O)c2cn(Cc3ccncc3)c3cc(Cl)ccc23)CC1 [Example 45, (6-Chloro-1-pyridin-4-ylmethyl-1H-indol-3-yl)-[4-(2,6-dimethoxy-phenyl)-piperidin-1-yl]-methanone] | 7 |
| COc1cccc(OC)c1C1CCN(C(=O)c2cn(Cc3cccnc3)c3cc(Cl)ccc23)CC1 [Example 46, (6-Chloro-1-pyridin-3-ylmethyl-1H-indol-3-yl)-[4-(2,6-dimethoxy-phenyl)-piperidin-1-yl]-methanone] | 7 |
| COc1cccc(OC)c1C1CCN(C(=O)c2cn(CC(=O)OC(C)(C)C)c3cc(Cl)ccc23)CC1 [Example 49, {6-Chloro-3-[4-(2,6-dimethoxy-phenyl)-piperidine-1-carbonyl]-indol-1-yl}-acetic acid tert-butyl ester] | 3 |
| COc1cccc(OC)c1C1CCN(C(=O)c2cn(CCN(C)C)c3cc(Cl)ccc23)CC1 [Example 52, [6-Chloro-1-(2-dimethylamino-ethyl)-1H-indol-3-yl]-[4-(2,6-dimethoxy-phenyl)-piperidin-1-yl]-methanone] | 4 |
| COc1cccc(OC)c1C1CCN(C(=O)c2cn(CC(=O)N3CCN(C)CC3)c3cc(Cl)ccc23)CC1 [Example 55, 2-{6-Chloro-3-[4-(2,6-dimethoxy-phenyl)-piperidine-1-carbonyl]-indol-1-yl}-1-(4-methyl-piperazin-1-yl)-ethanone] | 2 |
| COc1ccccc1C1CCN(C(=O)c2cn(CC(=O)N(C)C)c3cc(Cl)ccc23)CC1 [Example 57, 2-{6-Chloro-3-[4-(2-methoxy-phenyl)-piperidine-1-carbonyl]-indol-1-yl}-N,N-dimethyl-acetamide] | 2 |
| COc1ccccc1C1CCN(C(=O)c2cn(CC(=O)N3CCN(C)CC3)c3cc(Cl)ccc23)CC1 [Example 58, 2-{6-Chloro-3-[4-(2-methoxy-phenyl)-piperidine-1-carbonyl]-indol-1-yl}-1-(4-methyl-piperazin-1-yl)-ethanone] | 9 |
| COc1ccccc1C1CCN(C(=O)c2cn(CC(=O)OC(C)(C)C)c3cc(Cl)ccc23)CC1 [Example 59, {6-Chloro-3-[4-(2-methoxy-phenyl)-piperidine-1-carbonyl]-indol-1-yl}-acetic acid tert-butyl ester] | 2 |
| COc1cccc(OC)c1C1CCN(C(=O)c2cn(CC(=O)N(C)C)c3ccccc23)CC1 [Example 62, 2-{3-[4-(2,6-Dimethoxy-phenyl)-piperidine-1-carbonyl]-indol-1-yl}-N,N-dimethyl-acetamide] | 11 |
| COc1cccc(OC)c1C1CCN(C(=O)c2cn(Cc3ccnc(C)c3)c3cc(Cl)ccc23)CC1 [Example 63, [6-Chloro-1-(2-methyl-pyridin-4-ylmethyl)-1H-indol-3-yl]-[4-(2,6-dimethoxy-phenyl)-piperidin-1-yl]-methanone] | 2 |
| CC(C)Oc1ccccc1C1CCN(C(=O)c2cn(CC(=O)N(C)C)c3cc(Cl)ccc23)CC1 [Example 66, 2-{6-Chloro-3-[4-(2-isopropoxy-phenyl)-piperidine-1-carbonyl]-indol-1-yl}-N,N-dimethyl-acetamide] | 4 |
| CC(C)Oc1ccccc1C1CCN(C(=O)c2cn(CC(=O)N3CCN(C)CC3)c3cc(Cl)ccc23)CC1 [Example 67, 2-{6-Chloro-3-[4-(2-isopropoxy-phenyl)-piperidine-1-carbonyl]-indol-1-yl}-1-(4-methyl-piperazin-1-yl)-ethanone] | 5 |
| COc1cccc(OC)c1C1CCN(C(=O)c2cn(CC(=O)N3CCNCC3)c3cc(Cl)ccc23)CC1 [Example 69, 2-{6-Chloro-3-[4-(2,6-dimethoxy-phenyl)-piperidine-1-carbonyl]-indol-1-yl}-1-piperazin-1-yl-ethanone] | 6 |
| CN(C)C(=O)Cn1cc(C(=O)N2CCC(c3cccc4c3OCC4)CC2)c2ccc(Cl)cc21 [Example 72, 2-{6-Chloro-3-[4-(2,3-dihydro-benzofuran-7-yl)-piperidine-1-carbonyl]-indol-1-yl}-N,N-dimethyl-acetamide] | 3 |
| CNC(=O)Cn1cc(C(=O)N2CCC(c3cccc4c3OCC4)CC2)c2ccc(Cl)cc21 [Example 76, 2-{6-Chloro-3-[4-(2,3-dihydro-benzofuran-7-yl)-piperidine-1-carbonyl]-indol-1-yl}-N-methyl-acetamide] | 8 |
| COc1ccccc1C1CCN(C(=O)c2cn(CC(=O)N(C)C)c3cc(Cl)c(Cl)cc23)CC1 [Example 80, 2-{5,6-Dichloro-3-[4-(2-methoxy-phenyl)-piperidine-1-carbonyl]-indol-1-yl}-N,N-dimethyl-acetamide] | 6 |
| CNC(=O)Cn1cc(C(=O)N2CCC(c3c(OC)cccc3OC)CC2)c2ccc(Cl)cc21 [Example 82, 2-{6-Chloro-3-[4-(2,6-dimethoxy-phenyl)-piperidine-1-carbonyl]-indol-1-yl}-N-methyl-acetamide] | 2 |
| COc1cccc(OC)c1C1CCN(C(=O)c2cn(CC(=O)NCCN)c3cc(Cl)ccc23)CC1 [Example 84, N-(2-Amino-ethyl)-2-{6-chloro-3-[4-(2,6-dimethoxy-phenyl)-piperidine-1-carbonyl]-indol-1-yl}-acetamide] | 11 |
| CN1CCN(C(=O)Cn2cc(C(=O)N3CCC(c4ccccc4OC(F)(F)F)CC3)c3ccc(Cl)cc32)CC1 [Example 88, 2-{6-Chloro-3-[4-(2-trifluoromethoxy-phenyl)-piperidine-1-carbonyl]-indol-1-yl}-1-(4-methyl-piperazin-1-yl)-ethanone] | 7 |
